{
  "source": "patent US20160289640A1",
  "about": "“MTOR/STAT3 SIGNAL INHIBITOR-TREATED MESENCHYMAL STEM CELL HAVING IMMUNOMODULATORY ACTIVITY, AND CELL THERAPY COMPOSITION COMPRISING SAME, FOR PREVENTING OR TREATING IMMUNE DISORDERS” (THE CATHOLIC UNIVERSITY OF KOREA INDUSTRY-ACADEMIC …, priority 2013, published 2016)",
  "key": {"[1]": {"tested_on": "mesenchymal stem cells", "assay": "Flow cytometry of cell phenotype CD markers in rapamycin-treated mesenchymal stem cells", "assay_type": "cell-based", "procedure": "The mesenchymal stem cells isolated and cultured in <Example 1> were treated with rapamycin, respectively, and the phenotypes of the mesenchymal stem cells were analyzed. In particular, the mesenchymal stem cells not treated with rapamycin were used as a control, and the expression level of cell markers in the rapamycin-treated mesenchymal stem cells were analyzed via flow cytometry."}, "[2]": {"tested_on": "mesenchymal stem cells derived from human adipose tissue", "assay": "Fluorescence microscope analysis of IL-10 and IDO expression in rapamycin-treated mesenchymal stem cells", "assay_type": "cell-based", "conditions": "FIG. 1b"}, "[3]": {"tested_on": "adipose tissue-derived mesenchymal stem cells", "assay": "Real time PCR of inflammatory factors and tumor factors in rapamycin-treated mesenchymal stem cells", "assay_type": "cell-based", "conditions": "100 nM rapamycin, vs group not treated", "procedure": "(§1) The mesenchymal stem cells isolated and cultured in <Example 1> were treated with rapamycin, respectively, and the changes in the expression of High-mobility group protein B1 (HMGB-1), IL-6, and IL-1β, which are genes associated with inflammatory factors and tumor factors. First, in a condition of 60 mm dish, for the adipose tissue-derived mesenchymal stem cells, the mesenchymal stem cells in the amount of 5 ? 10^5 cells which were treated with 100 nM rapamycin and cultured at 37° C. were used. In particular, the mesenchymal stem cells not treated with rapamycin were used as a control, and the expression level of the genes having immunomodulatory activity in rapamycin-treated mesenchymal stem cells was analyzed using a real time PCR method."}, "[4]": {"tested_on": "mesenchymal stem cells derived from human adipose tissues", "assay": "Formation of autophagic vacuoles observed under electron microscope", "assay_type": "cell-based", "conditions": "50 μM rapamycin", "procedure": "Meanwhile, autophagy has the effects capable of controlling the beneficial or harmful effects of immunity and inflammation, and preventing autoimmunity and inflammatory diseases, and thus the rapamycin-treated mesenchymal stem cells of the present invention, due to their autophagy, can be more effectively used for the immunity and treatment of inflammatory diseases. As such, the present inventors treated the mesenchymal stem cells with 50 μM rapamycin and the degree of formation of autophagic vacuoles was observed under electron microscope."}, "[5]": {"tested_on": "adipose tissue-derived mesenchymal stem cells", "assay": "Cell migration kit analysis (upper/lower chamber, polycarbonate membrane)", "assay_type": "cell-based, human", "procedure": "For the confirmation of cell migration of the mesenchymal stem cells treated with rapamycin (10 ng/mL), the cells were analyzed using a cell migration kit (Chemicon, Temecula, Calif.). That is, a group with CD4+T cells alone, a group treated with CD4+T cells and rapamycin (10 ng/mL), and a group treated with SDF-1 cells and CD4+T cells were added into the lower chamber, respectively, and the mesenchymal stem cells were added into the upper chamber. Then, for the migration of the adipose tissue-derived mesenchymal stem cells added into the upper chamber into the lower chamber, the cells passed through a polycarbonate membrane were stained and their number was observed by counting."}, "[6]": {"tested_on": "mTOR signaling pathway in human adipose tissue-derived mesenchymal stem cells", "assay": "Western blot analysis of mTOR signaling pathway and autophagy proteins", "assay_type": "cell-based", "procedure": "The present inventors, in furtherance with the result of <6-1>, performed western blot analysis to examine whether mTOR signaling pathway can be controlled by rapamycin, in the rapamycin-treated mesenchymal stem cells. For this purpose, human adipose tissue-derived mesenchymal stem cells were treated with 10 ng/mL rapamycin, and 1 hour later, the cells were lysed and proteins were extracted therefrom. Then, the extracted proteins were subjected to SDS-PAGE electrophoresis, electrically transferred to a nitrocellulose membrane, blocked with 5% skim milk for 1 hour, reacted by attaching primary antibodies to Beclin1, ATG5, ATG7, LC3I, LC3II, Phospho-mTOR, mTOR, Rictor, and Ractor, and then reacted by attaching secondary antibodies thereto, and photosensitized into Kodak X-ray using the Enhanced Chemiluminescence (ECL), and the expression levels of the proteins of these genes were analyzed (FIG. 6c)."}, "[7]": {"tested_on": "adipose tissue-derived mesenchymal stem cells", "assay": "Real-time PCR of autophagy factor markers", "assay_type": "cell-based, human", "conditions": "10 ng/mL rapamycin, 12 hours, vs group not treated", "procedure": "The adipose tissue-derived mesenchymal stem cells isolated and cultured in Example 1 were treated with 10 ng/mL rapamycin, and 12 hours later, the cells were collected and the total RNA was obtained therefrom. Then, cDNA Synthesis Kit (Roche, Transcriptor First Strand cDNA Synthesis Kit) was prepared based on the RNA. Then, the expression levels of ATG5, LC3A, and LC3B genes, which are autophagy factor markers, were analyzed via real-time PCR using the thus-synthesized cDNA."}, "[8]": {"tested_on": "adipose tissue-derived mesenchymal stem cell", "assay": "Real-time PCR of cell migration markers", "assay_type": "cell-based, human", "conditions": "50 nM rapamycin, vs group not treated", "procedure": "In order to confirm whether adipose tissue-derived mesenchymal stem cell treated with 50 nM rapamycin can migrate into a lesion area due to their cell migration capability, the present inventors analyzed the expression levels of CCR1, CCR2, CCR3, CCR4, CCR7, CCR9, and CXCR4, which are factors associated with the migration of mesenchymal stem cells, via real-time PCR."}, "[9]": {"tested_on": "mesenchymal stem cells", "assay": "Real time PCR of genes associated with immunomodulatory activity in rapamycin-treated mesenchymal stem cells", "assay_type": "cell-based, human", "procedure": "as §1, with “IDO, IL-10,” for “High-mobility group protein B1 (HMGB-1), IL-6,”, “TGF-β,” for “IL-1β,”, “immunomodulatory activity.” for “inflammatory factors and tumor factors.”"}, "[10]": {"conditions": "10 ng/mL rapamycin, 1 hour, western blot"}, "[11]": {"conditions": "100 nM rapamycin, 5x10^5 cells, 37° C., real time PCR, vs group not treated"}},
  "note": "“Also recorded” adds a separate entry of the source.",
  "data": [
    {"smiles": "CO[C@H]1C[C@@H]2CC[C@@H](C)[C@@](O)(O2)C(=O)C(=O)N2CCCC[C@H]2C(=O)O[C@H]([C@H](C)C[C@@H]2CC[C@@H](O)[C@H](OC)C2)CC(=O)[C@H](C)/C=C(\\C)[C@@H](O)[C@@H](OC)C(=O)[C@H](C)C[C@H](C)/C=C/C=C/C=C/1C", "note": "[rapamycin, (3S,6R,7E,9R,10R,12R,14S,15E,17E,19E,21S,23S,26R,27R,34aS)-9,10,12,13,14,21,22,23,24,25,26,27,32,33,34,34a-hexadecahydro-9,27-dihydroxy-3-[(1R)-2-[(1S,3R,4R)-4-hydroxy-3-methoxycyclohexyl]-1-methylethyl]-10,21-dimethoxy-6,8,12,14,20,26-hexamethyl-23,27-epoxy-3H-pyrido [2,1-c][1,4]-oxaazacyclohentriacontine-1,5,11,28,29 (4H,6H,31H)-pentone]", "values": [
      {"measurement": "expression of CD45 (negative marker)", "setting": "[1]", "value": "negative"},
      {"measurement": "expression of HLA-DR (negative marker)", "setting": "[1]", "value": "negative"},
      {"measurement": "expression level of IL-10 cytokine", "setting": "[2]", "value": "significantly increased"},
      {"measurement": "expression of HMGB-1", "setting": "[3]", "value": "significant decrease"},
      {"measurement": "expression of IL-1β", "setting": "[3]", "value": "significant decrease"},
      {"measurement": "expression of IL-6", "setting": "[3]", "value": "significant decrease"},
      {"measurement": "number of autophagic vacuoles", "setting": "[4]", "value": "increase"},
      {"measurement": "migration of mesenchymal stem cells", "setting": "[5]; CD4+T cells and rapamycin (10 ng/mL), vs mesenchymal stem cells not treated with anything", "value": "greater migration"},
      {"measurement": "expression level of ATG5 protein", "setting": "[6]; [10]", "value": "increase"},
      {"measurement": "expression level of ATG7 protein", "setting": "[6]; [10]", "value": "increase"},
      {"measurement": "expression level of Beclin1 protein", "setting": "[6]; [10]", "value": "increase"},
      {"measurement": "expression level of LC3I protein", "setting": "[6]; [10]", "value": "increase"},
      {"measurement": "expression level of LC3II protein", "setting": "[6]; [10]", "value": "increase"},
      {"measurement": "mTOR activation (phosphorylation)", "setting": "[6]; [10]", "value": "inhibited; also recorded: reduced"},
      {"measurement": "expression of Ractor", "setting": "[6]; rapamycin treatment", "value": "decreased"},
      {"measurement": "expression of Rictor", "setting": "[6]; rapamycin treatment", "value": "decreased"},
      {"measurement": "expression level of ATG5 gene", "setting": "[7]", "value": "significant increase"},
      {"measurement": "expression level of LC3A gene", "setting": "[7]", "value": "significant increase"},
      {"measurement": "expression level of LC3B gene", "setting": "[7]", "value": "significant increase"},
      {"measurement": "increase in the expression of CCR1", "setting": "[8]", "value": "~115", "unit": "fold"},
      {"measurement": "increase in the expression of CCR2", "setting": "[8]", "value": "~25", "unit": "fold"},
      {"measurement": "increase in the expression of CCR3", "setting": "[8]", "value": "~70", "unit": "fold"},
      {"measurement": "increase in the expression of CCR4", "setting": "[8]", "value": "~32", "unit": "fold"},
      {"measurement": "increase in the expression of CCR7", "setting": "[8]", "value": "~200", "unit": "fold"},
      {"measurement": "increase in the expression of CCR9", "setting": "[8]", "value": "~150", "unit": "fold"},
      {"measurement": "increase in the expression of CXCR4", "setting": "[8]", "value": "~60", "unit": "fold"},
      {"measurement": "increase in the expression of IDO", "setting": "[9]; [11]", "value": "~5", "unit": "fold"},
      {"measurement": "increase in the expression of IL-10", "setting": "[9]; [11]", "value": "~5", "unit": "fold"},
      {"measurement": "increase in the expression of TGF-β", "setting": "[9]; [11]", "value": "~5", "unit": "fold"},
      {"measurement": "increase in TGF-β expression", "setting": "[9]; rapamycin-treated mesenchymal stem cells derived from adipose tissue vs not treated with rapamycin", "value": "~30", "unit": "fold"}
    ]},
    {"smiles": "CO/C1=C\\C(C)=C\\[C@@H](C)[C@@H](O)[C@@H](C)C/C(C)=C/C=C/[C@H](OC)[C@@H]([C@@H](C)[C@@H](O)[C@H](C)[C@@]2(O)C[C@@H](O)[C@H](C)[C@@H](C(C)C)O2)OC1=O", "note": "[bafilomycin]", "values": [
      {"measurement": "cell migration capability of the rapamycin-treated mesenchymal stem cells", "setting": "[5]; after treatment with bafilomycin", "value": "reduced"}
    ]}
  ]
}
